pEC50, pKi: −log10 of the molar value.
Legend:
[1] = molecular target: 5-HT4 receptor (Rattus norvegicus, UniProt Q62758); experiment: cell-based; details: rat esophagus tunica muscularis mucosae contracted with carbachol (3 μM); tissues from 5 rats; 37° C.; read-out: EC50 values for agonists at this 5-HT4 receptor
Protocol: Agonist activity was determined utilizing relaxation of carbachol-contracted rat tunica muscularis mucosae. One 2 cm segment of intrathoracic esophagus proximal to the diaphragm was removed from male rats, weighing approximately 300 gm, and the outer muscle layers removed. The inner tunica muscularis mucosa was mounted under 0.2-0.3 g of tension in a tissue bath containing oxygenated Tyrode's solution at 37° C. […] Following a 30 min equilibrium period, tissues were isometrically contracted with carbachol (3 μM) to obtain a tonic contraction. A stable plateau was obtained within 20 min when test compound was added cumulatively to relax the muscle strip. EC50 values were obtained for each agonist in tissues from 5 rats.

[2] = molecular target: T1, 5-HT3 receptor (Rattus norvegicus, UniProt P35563); experiment: Serotonin (5-HT3) radioligand receptor binding assay ([3H]-GR65630, rat brain cortex membranes)
T1 construct: Brain cortices are obtained from male rats and a membrane fraction prepared by standard techniques; from tissue; host or cells: rat brain cortex membranes
T1 sequence (P35563 24-483): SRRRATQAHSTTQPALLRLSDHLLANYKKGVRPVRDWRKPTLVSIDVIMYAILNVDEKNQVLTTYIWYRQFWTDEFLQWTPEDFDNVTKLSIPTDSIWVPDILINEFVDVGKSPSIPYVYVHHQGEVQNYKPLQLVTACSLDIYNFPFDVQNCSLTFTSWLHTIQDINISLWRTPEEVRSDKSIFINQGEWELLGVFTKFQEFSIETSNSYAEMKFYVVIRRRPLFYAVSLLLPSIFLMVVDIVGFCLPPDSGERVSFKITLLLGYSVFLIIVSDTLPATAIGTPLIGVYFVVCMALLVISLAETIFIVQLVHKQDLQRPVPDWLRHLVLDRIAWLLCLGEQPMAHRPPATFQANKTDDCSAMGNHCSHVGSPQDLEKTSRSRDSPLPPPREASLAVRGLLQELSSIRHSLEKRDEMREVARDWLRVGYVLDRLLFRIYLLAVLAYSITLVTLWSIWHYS
Protocol: 5-HT3 antagonism can be determined by the radioligand receptor binding assay as described herein and in the in vivo Bezold-Jarisch reflex procedure.
GR65630 binds to the 5-HT3 receptor. Brain cortices are obtained from male rats and a membrane fraction prepared by standard techniques. 0.04 mg of membrane prep is incubated with 0.2 nM [^3 H]-GR656630 for 60 minutes at 22° C. […] Membranes are filtered and washed 3 times and the filters are counted to determine [3H]-GR65630 specifically bound.*
Kilpatrick G. J., Jones B. J. and Tyers M. B. Identification and distribution of 5-HT3 receptors in rat brain using radioligand binding. Nature, 330: 746-748, 1987.

Chain of 5-HT4 receptor (Q62758 whole entry): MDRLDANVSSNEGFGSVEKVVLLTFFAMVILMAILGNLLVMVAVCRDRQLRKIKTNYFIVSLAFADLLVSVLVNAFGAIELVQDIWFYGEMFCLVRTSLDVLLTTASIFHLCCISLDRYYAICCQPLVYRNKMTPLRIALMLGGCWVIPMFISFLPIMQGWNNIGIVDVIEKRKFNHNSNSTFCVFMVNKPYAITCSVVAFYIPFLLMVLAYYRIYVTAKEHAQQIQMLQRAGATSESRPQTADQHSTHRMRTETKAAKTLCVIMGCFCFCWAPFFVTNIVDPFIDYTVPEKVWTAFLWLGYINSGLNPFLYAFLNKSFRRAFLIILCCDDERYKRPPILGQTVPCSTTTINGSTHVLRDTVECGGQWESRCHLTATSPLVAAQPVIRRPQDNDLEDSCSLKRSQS

SMILES | pEC50 [1] | further results
COc1cc(N)c(Cl)cc1C(=O)NCC12CCCN1CCC2 [Example 1, 4-amino-5-chloro-2-methoxy-N-(tetrahydro-1H-pyrrolizin-7a (5H) -ylmethyl)benzamide] | 6.37 | 
COc1cc(N)c(Cl)cc1C(=O)NCC12CC3CN(CC3C1)C2 [Example 9, 4-amino-5-chloro-N-[(hexahydro-2,5β-methano-1H-3aR,3aα,6aα-cyclopenta[c]pyrrol-5-yl)methyl]-2-methoxybenzamide] | 6.67 | 
Cc1nc[nH]c1CCC(=O)c1cn(C)c2ccccc12 [GR65630] |  | % Specific Binding ([2]; radioligand, non-specific binding estimated in the presence of 1 uM ICS 205-930): 70%
COc1ccc2[nH]cc(C3=CCNCC3)c2c1 [RU24969] |  | pKi [2]: 8.73

Reference: patent US5516782A, “New meso-azacyclic aromatic acid amides and esters as novel serotonergic agents” (G. D. Searle & Co., priority 1995, dated 1996)
